Test results reported in US10905738B2, “Synthetic peptides, prodrugs, pharmaceutical compositions and uses” (Biozeus Desenvolvimento De Produtos Biofarmacêuticos, priority 2018, dated 2021).
Where a SMILES comes first, the peptide text is derived from it.

Tested on: smooth muscle of pulmonary arteries
Test: relaxation of pulmonary arteries contracted with phenylephrine ex vivo
Design: species or system male Wistar rats
Details: n = 9; for pEC50: pulmonary arteries contracted with phenylephrine, peptides 1 nM-10 μM, mean±SEM; for Effectiveness (Emax) (%): relaxation percentage related to maximum phenylephrine contraction
From the text: The ex vivo model of pulmonary artery smooth muscle contraction with phenylephrine is very useful to screen candidate compounds for lung diseases that demand vasodilating effects (ALENCAR, A. K., PEREIRA, S. L., MONTAGNOLI, T. L., MAIA, R. C., KUMMERLE, A. E., LANDGRAF, S. S., CARUSO-NEVES, C., FERRAZ, E. B., TESCH, R., NASCIMENTO, J. H., DE SANT'ANNA, C. M., FRAGA, C. A., BARREIRO, E. J., SUDO, R. T., ZAPATA-SUDO, G. Beneficial effects of a novel agonist of the adenosine A2A receptor on monocrotaline-induced pulmonary hypertension in rats. Br J Pharmacol, 169: 953-62. 2013).
Rats were anesthetized with midazolam and ketamine (2 mg/kg and 100 mg/kg, respectively) via intraperitoneal administration. After infusion of a lethal dose of sodium thiopental via intraperitoneal administration (50 mg/kg), the trunk of the pulmonary artery was carefully removed via sternotomy. The pulmonary artery was carefully dissected and the connective tissue removed. The arteries were connected to a force transductor, positioned in vertical chambers filled with Krebs solution, oxygenated and kept at 37° C.
After a stabilization period of 2 hours at a tension of 1.5 grams, the arteries were exposed to increasing doses of phenylephrine (1 nM-10 μM) in order to obtain maximum smooth muscle contraction and then exposed to increasing doses of selected peptides in the concentrations of 1 nM-10 μM each (n=9). The tension generated by the pulmonary artery was evaluated at intervals of 5 minutes for each dose (ALENCAR, A. K., PEREIRA, S. L., MONTAGNOLI, T. L., MAIA, R. C., KUMMERLE, A. E., LANDGRAF, S. S., CARUSO-NEVES, C., FERRAZ, E. B., TESCH, R., NASCIMENTO, J. H., DE SANT'ANNA, C. M., FRAGA, C. A., BARREIRO, E. J., SUDO, R. T., ZAPATA-SUDO, G. Beneficial effects of a novel agonist of the adenosine A2A receptor on monocrotaline-induced pulmonary hypertension in rats. Br J Pharmacol 169: 953-62. 2013; ALENCAR, A. K., PEREIRA, S. L., DA SILVA, F. E., MENDES, L. V., CUNHA VDO, M., LIMA, L. M., MONTAGNOLI, T. L., CARUSO-NEVES, C., FERRAZ, E. B., TESCH, R., NASCIMENTO, J. H., SANT'ANNA, C. M., FRAGA, C. A., BARREIRO, E. J., SUDO, R. T., ZAPATA-SUDO, G. N-acylhydrazone derivative ameliorates monocrotaline-induced pulmonary hypertension through the modulation of adenosine AA2R activity. International Journal of Cardiology, 173(2): 154-62. 2014).
Potency values are shown as the negative logarithm of the concentration that reduced the voltage to 50% of the maximum phenylephrine-induced contraction (pEC50), and they are expressed as mean±SEM. The maximum contraction achieved in a given artery was considered to be 100% of contraction, and the effectiveness (Emax) was expressed as the relaxation percentage related to this maximum value. The results were calculated from at least 3 independent tests using the sigmoid non-linear regression equation, and the statistical analysis of the concentration curve was done by performing a nonlinear fit of the logarithmic of the agonist versus response. All the above calculations were performed on the software Graph Prism 5.0 (GraphPad Software, La Jolla, Calif., USA). Tension analysis was performed on the software LabChart7 (AD Instruments, Sydney, Australia). As a cutoff to determine biological significance, we considered pulmonary artery relaxation values above 30% as biologically relevant, considered those as active and then calculated the Emax values (SUN, C. K., LIN, Y. C., YUEN, C. M., CHUA, S., CHANG, L. T., SHEU, J. J., LEE, F. Y., FU, M., LEU, S., YIP, H. K. Enhanced protection against pulmonary hypertension with sildenafil and endothelial progenitor cell in rats. International journal of cardiology, 162(1): 45-58. 2012; ALENCAR, A. K., PEREIRA, S. L., DA SILVA, F. E., MENDES, L. V., CUNHA VDO, M., LIMA, L. M., MONTAGNOLI, T. L., CARUSO-NEVES, C., FERRAZ, E. B., TESCH, R., NASCIMENTO, J. H., SANT'ANNA, C. M., FRAGA, C. […]

SMILES	pEC50	Effectiveness (Emax) (%)
CC[C@H](C)[C@H](NC(=O)[C@H](Cc1c[nH]c2ccccc12)NC(=O)[C@H](Cc1ccccc1)NC(C)=O)C(=O)N[C@@H](C)C(=O)N[C@@H](Cc1c[nH]c2ccccc12)C(=O)N[C@@H](Cc1ccc(O)cc1)C(=O)N[C@@H](CCCCN)C(=O)N[C@@H](CC(C)C)C(=O)N[C@@H](C)C(N)=O [SEQ ID NO: 19, Ac-Phe-Trp-Ile-Ala-Trp-Tyr-Lys-Leu-Ala-NH2] (Ac-FWIAWYKLA-NH2)	6.9 ± 6.55	24% ± 9.71
CC[C@H](C)[C@H](NC(C)=O)C(=O)N[C@@H](C)C(=O)N[C@@H](Cc1c[nH]c2ccccc12)C(=O)N[C@@H](Cc1ccc(O)cc1)C(=O)N[C@@H](CCCCN)C(N)=O [SEQ ID NO: 24, Ac-Ile-Ala-Trp-Tyr-Lys-NH2] (Ac-IAWYK-NH2)	4.4 ± 6.4	5% ± 5.96
